Entries after “also recorded” stand apart in the source; their conditions may differ. No end group written: not given here.
How the values were obtained:
[1] = system: vascular cells of the apoaequorin-expressing mice; assay: Intracellular calcium ion increase (aequorin luminescence), blood vessel of apoaequorin-expressing mice; assay type: cell-based, mouse; conditions: for luminescence in the blood vessel: organ pieces, peptide final concentrations of 1 μmol/L and of 5 μmol/L
Description: (§1) A heart or blood vessel is collected from transgenic mice systemically expressing apoaequorin (WO02/010371) produced by introducing an apoaequorin gene expression vector into fertilized eggs. The obtained heart or blood vessel is cut finely into pieces, suspended in a medium containing coelenterazine, and then incubated to incorporate coelenterazine into the cells to form aequorin (a complex of apoaequorin and coelenterazine). Since aequorin luminesces upon binding to intracellular calcium ions, the relative luminescence level in cells before and after addition of a medium containing the peptide or a pharmaceutically acceptable salt thereof is measured in a luminometer every second over time and is used as an indicator of intracellular calcium ion concentration. Increase in the relative luminescence level due to addition of the peptide or pharmaceutically acceptable salt thereof confirms that the peptide or pharmaceutically acceptable salt thereof has the activity to increase intracellular calcium ion concentration.
(§2) Whether Peptides 1 to 5, 9 and 10 synthesized in Example 2 have the activity of increasing intracellular calcium ion concentration was investigated using the organs of transgenic mice introduced with the apoaequorin gene and systemically expressing apoaequorin (hereinafter referred to as apoaequorin-expressing mice). In apoaequorin-expressing mouse cells, light is emitted when apoaequorin binds to a calcium ion in the presence of the luminescent substrate coelenterazine and thus the intracellular calcium ion concentration can be monitored. Patent Document (WO02/010371) discloses the method for producing apoaequorin-expressing mice, method for evaluating biologically active substances that use biological samples derived from the mice, and experimental results of evaluating biologically active peptides using the mouse organs as shown below. […] Therefore, apoaequorin-expressing mice can be used in the evaluation of the physiological activities of novel peptides.
(§3) Apoaequorin-expressing mice were produced according to the method disclosed in Reference Example 4 of Patent Document (WO02/010371). The apoaequorin-expressing mice were sacrificed, individual organs including thymus, spleen, bone, blood vessel, heart, kidney, adrenal gland, pancreas, pituitary gland, and uterus, were removed; and each of the organs was cut into small cubes of approximately 1 to 2 mm^3. Next, in 5-mL tubes (Rohren-Tubes; manufactured by Sarstedt, No. 55.476), three portions of each of the prepared organs were added to 50 μL of a 10 μmol/L solution of coelenterazine (manufactured by Molecular Probes) dissolved in RPMI 1640 medium, and these were cultured at 37° C. for three hours. After culturing, RPMI 1640 medium was added, and then Peptides 1 to 5, 9 and 10 dissolved in RPMI 1640 medium were added 25 seconds after the addition of RPMI 1640 until each peptide had final concentrations of 1 μmol/L and of 5 μmol/L, and the relative luminescence levels were measured every second immediately after the addition of RPMI 1640 medium by using a luminometer (AutoLumat LB953, manufactured by Berthold).

[2] = system: thymus; assay: Aequorin luminescence, thymus of apoaequorin-expressing mice; assay type: cell-based, mouse; conditions: organ pieces, peptide final concentrations of 1 μmol/L and of 5 μmol/L
Source text: as §2, §3

[3] = system: uterus; assay: Aequorin luminescence, uterus of apoaequorin-expressing mice; assay type: cell-based, mouse; conditions: organ pieces, peptide final concentrations of 1 μmol/L and of 5 μmol/L
Source text: as §2, §3

[4] = system: bone; assay: Aequorin luminescence, bone of apoaequorin-expressing mice; assay type: cell-based, mouse; conditions: organ pieces, peptide final concentrations of 1 μmol/L and of 5 μmol/L
Source text: (§4) Whether Peptides 1 to 5, 9 and 10 synthesized in Example 2 have the activity of increasing intracellular calcium ion concentration was investigated using the organs of transgenic mice introduced with the apoaequorin gene and systemically expressing apoaequorin (hereinafter referred to as apoaequorin-expressing mice). In apoaequorin-expressing mouse cells, light is emitted when apoaequorin binds to a calcium ion in the presence of the luminescent substrate coelenterazine and thus the intracellular calcium ion concentration can be monitored. Patent Document (WO02/010371) discloses the method for producing apoaequorin-expressing mice, method for evaluating biologically active substances that use biological samples derived from the mice, and experimental results of evaluating biologically active peptides using the mouse organs as shown below. […]
(§5) Apoaequorin-expressing mice were produced according to the method disclosed in Reference Example 4 of Patent Document (WO02/010371). […] After culturing, RPMI 1640 medium was added, and then Peptides 1 to 5, 9 and 10 dissolved in RPMI 1640 medium were added 25 seconds after the addition of RPMI 1640 until each peptide had final concentrations of 1 μmol/L and of 5 μmol/L, and the relative luminescence levels were measured every second immediately after the addition of RPMI 1640 medium by using a luminometer (AutoLumat LB953, manufactured by Berthold).

[5] = system: spleen; assay: Aequorin luminescence, spleen of apoaequorin-expressing mice; assay type: cell-based, mouse; conditions: organ pieces, peptide final concentrations of 1 μmol/L and of 5 μmol/L
Source text: as §2, §3

[6] = system: cardiac cells of the apoaequorin-expressing mice; assay: Intracellular calcium ion increase (aequorin luminescence), heart of apoaequorin-expressing mice; assay type: cell-based, mouse; conditions: for intracellular calcium concentration in cardiac cells (RLU per second): 1 μmol/L of peptide, added at 25 seconds; for luminescence in the heart: organ pieces, peptide final concentrations of 1 μmol/L and of 5 μmol/L
Description: as §1, §2, §3

[7] = system: antiserum (rabbit, Peptide 7-KLH conjugate as antigen); assay: Binding specificity of antiserum by competitive RIA with [125I]-labeled Peptide 1; conditions: for inhibition of antiserum binding to [125I]-labeled Peptide 1: VGF-derived peptides, sequentially diluted
Description: As controls, reactions that use RIA buffer instead of the antiserum to measure non-specific binding, and reactions […] that use RIA buffer instead of VGF-derived peptide solutions to measure the maximum binding level were carried out. Reactions for non-specific binding were performed in quadruplicates, and the other reactions were performed in duplicates, and for each of the reactants, the immune complex was precipitated as in the above-mentioned antibody titer measurements, and its radioactivity (cpm) was measured. The average radioactivity of non-specific binding reaction is defined as non-specific binding level N, the radioactivity value for each VGF-derived peptide addition reaction is defined as Y, and the radioactivity value of maximum binding reaction is defined as Z. The percentage ratio (B/B0) of antiserum specific binding level (B) with peptide addition to the maximum binding level (B0), was determined using the following formula.
B/B0 (%)={(Y−N)/(Z−N)}×100
Accordingly, the amount of peptide that achieves 50% B/B0, more specifically, the amount of peptide that yields 50% inhibition of the maximum binding level, was used as an indicator of the peptide binding activity to the antiserum.
The amounts of peptide/tube used for performing the measurements were 0.5, 1, 2, 4, 8, 16, 32, 64, 128, 256, 512 and 1024 fmol for Peptide 1; 1, 2, 4, 8, 16, 32, 64, 128, 256, 512 and 1024 fmol for Peptide 2; 1, 3.3, 10, 33, 100, 333, 1000, 3300, 10,000, 33,000, 100,000, 333,000 and 1,000,000 fmol for Peptide 3; and 1,000, 10,000, 100,000 and 1,000,000 fmol for Peptide 8.

[8] = Effect on rat blood pressure (anesthetized rats, bolus injection); assay type: in vivo; conditions: 300 nmol in saline, bolus injection into external jugular vein, anesthetized male Wistar rats
Description: Catheters are inserted into the external jugular vein and internal carotid artery of an anesthetized animal such as rat or the like, and arterial pressure is measured continuously by connecting the catheter in the internal carotid artery to a blood pressure monitor. The peptide or pharmaceutically acceptable salt dissolved in physiological saline is administered through the external jugular vein.
Wistar rats (male, 10-weeks old, 250 to 300 g) were anesthetized by intraperitoneally administering Pentobarbital at 50 mg/kg body weight. Catheters were inserted into the external jugular vein and internal carotid artery of the anesthetized rats; the catheter in the internal carotid artery was connected to a blood pressure monitor; 300 nmol of Peptide 2 dissolved in saline (100 μL) was administered from the external jugular vein by bolus injection; and blood pressure was measured continuously.

[9] = system: kidney; assay: Aequorin luminescence, kidney of apoaequorin-expressing mice; assay type: cell-based, mouse; conditions: organ pieces, peptide final concentrations of 1 μmol/L and of 5 μmol/L
Source text: as §4, §5

[10] = system: pituitary gland; assay: Aequorin luminescence, pituitary gland of apoaequorin-expressing mice; assay type: cell-based, mouse; conditions: organ pieces, peptide final concentrations of 1 μmol/L and of 5 μmol/L
Source text: as §2, §3

[11] = system: adrenal gland; assay: Aequorin luminescence, adrenal gland of apoaequorin-expressing mice; assay type: cell-based, mouse; conditions: organ pieces, peptide final concentrations of 1 μmol/L and of 5 μmol/L
Source text: as §4, §5

antiserum binding relative to the Peptide 1 binding ([7]; fraction of the Peptide 1 binding)	amount required to show the same degree of inhibition as Peptides 1 and 2 ([7]; relative to Peptides 1 and 2)	Substance	intracellular calcium concentration in vascular cells (RLU per second) ([1]; 5 μmol/L of peptide, added at 25 seconds)	luminescence in the blood vessel [1]	luminescence in the thymus [2]	luminescence in the uterus [3]	luminescence in the bone [4]	luminescence in the spleen [5]	intracellular calcium concentration in cardiac cells (RLU per second) [6]	luminescence in the heart [6]	inhibition of antiserum binding to [125I]-labeled Peptide 1 [7]	change in average arterial blood pressure [8]	luminescence in the kidney [9]	luminescence in the pituitary gland [10]	luminescence in the adrenal gland [11]
–	–	Peptide 2: positions 554 to 577 of human VGF (SEQ ID NO: 3) with C-terminal amide (TLQPPSALRRRHYHHALPPSRHYP-NH2)	increase of intracellular calcium concentration	luminescence was observed	luminescence was observed	luminescence was observed	luminescence was observed	luminescence was observed	increase of intracellular calcium concentration	luminescence was observed	same degree of quantity-dependent inhibition	obvious increase in blood pressure; also recorded: increase of blood pressure	–	–	–
1/10000	approximately 10,000 folds	Peptide 3: positions 554 to 583 of the amino acid sequence of human VGF, termini unmodified (H-TLQPPSALRRRHYHHALPPSRHYPGREAQA-OH)	–	luminescence was observed	luminescence was observed	luminescence was observed	luminescence was observed	luminescence was observed	increase of intracellular calcium concentration	luminescence was observed	dose-dependent inhibition of antiserum binding but the inhibition was weak	–	luminescence was observed	luminescence was observed	luminescence was observed

Source: US20100248255A1, “NOVEL PEPTIDES” (KYOWA HAKKO KOGYO CO., LTD, priority 2005, published 2010)
